Earlier results as cited in patent publication US8709498B2, “Method of stimulating tissue healing” (priority 2001, dated 2014).
pIC50: −log10 of the molar value. Where two headings read alike, the source gives them in different places. Blank lines part the entries; values can stand above or below the compound they belong to.

Legend:
[1] = test system: rat RAW264.7 cells; details: for Km: read-out: Km of take-up
[2] = test system: macrophages
[3] = test system: macrophages; details: (NaOCl)=1.0075 mM, after two hours of contact in vitro
[4] = test system: rat macrophage like-cells RAW 264.7
[5] = test system: human fibroblasts
[6] = test system: human macrophages, fibroblasts and keratinocytes
[7] = not given; remark: listed apart in the source
[8] = test system: TNF-α; details: dose-dependent
[9] = test system: polymorphonuclear neutrophils; details: read-out: IC50, chemiluminescence decrease
[10] = test system: macrophages or macrophage-line cells
[11] = test system: rat DCs
[12] = test system: T cells
[13] = test system: human skin fibroblasts; details: human skin fibroblasts in vitro
[14] = test system: mouse T cells
[15] = test system: IL-6; details: rheumatoid arthritis fibroblast-like synoviocytes
[16] = test system: E. Coli
[17] = test system: human synoviocytes-like fibroblastes; details: (TauCl)=400-500 μM
[18] = test system: polymorphonuclear neutrophils; details: HOCl 250 μM
[19] = test system: IL-8; details: rheumatoid arthritis fibroblast-like synoviocytes
[20] = test system: mouse dendritic cells; details: incubated 24 hours
[21] = test system: IL-1α; details: all stimulation levels
[22] = test system: AP-1
[23] = test system: human endothelial cells
[24] = test system: human fibroblasts; remark: listed apart in the source
[25] = test system: endothelial cells; details: in vitro, (HOCl)=35 μM
[26] = test system: mouse macrophages; details: abolished by nitrite excess
[27] = test system: endothelial cells of the human umbilical vein; details: HOCl 5 nM/1.2×10^5 cells, in vitro; no cell death

Compound: NCCS(=O)(=O)O [taurine]
Vmax of take-up ([1]; LPS-stimulated macrophages): 116.3 pmol/min/10^6 cells | Km ([1]; LPS-stimulated macrophages): 17.3 µM | Vmax of take-up ([1]; relaxed rat RAW264.7 cells): 90.9 pmol/min/10^6 cells | Km ([1]; relaxed rat RAW264.7 cells): 28.1 µM | effect on nitric oxide generation ([2]; taurine alone): without effect

cells alive [3]: 95% | cells that keep their adherence to substrates [3]: 40% | stability (levels below 5 g/l of available chlorine): under 2 weeks | stability of NaOCl oxidative activity (pH value between 10 and 10.5 (EP 0471129 A1)): greater than 24 months | NaOCl stability (temperature increased to 37° C.): below 24 hours | NaOCl concentration at which cell morbidity is complete [5]: 16.8 mM | cells alive ([5]; 67,165 μmol/l<(NaOCl)<671,655 μmol/l): 100%
Compound: OCl [NaOCl, sodium hypochlorite]
NaOCl concentration at which cell viability is highly altered (irreversible) [4]: 1 mM | NaOCl concentration of highest efficiency in stimulating growth and cell proliferation ([5]; FCS presence (2%)): 33.6 µM | NaOCl concentration at which viability is not altered and growth and proliferation are stimulated ([5]; FCS presence (2%), 24 hours of exposure): < 672 µM | NaOCl concentration at which cell viability is altered ([5]; observed for 24 hours after a 15-minute exposition): ≥ 1,0075 mM | NaOCl concentration at which toxicity can be neutralized by an antioxidant addition [6]: < 3.358 mM | NaOCl concentration at which toxicity is very low with an antioxidant presence [6]: < 1.679 mM | NaOCl concentration with high toxicity [6]: > 6.7165 mM | NaOCl concentration at which toxicity cannot be neutralized by antioxidants ([6]; antioxidants at physiological concentrations): 13.433 mM

Compound: O=S(=O)([O-])CCNCl.[Na+] [taurine N-chloramine sodium salt]
stability decrease in 15 days ([7]; aqueous solution, pH=8.3): around 30% | stability decrease in 65 days ([7]; aqueous solution, pH=8.3): around 61% | stability decrease per day after the first 15 days ([7]; aqueous solution, pH=8.3): around 0.71 % per day

Compound: O=S(=O)(O)CCNCl [TauCl, taurine N-chloramine]
IC60, TNF-α transcriptional velocity [8]: 400 µM | pIC50 [9]: 3.26 | TauCl concentration that alters cell viability [10]: > 1 mM | oxidative activity decrease ([7]; physiological pH (7.4), 37° C.): below 5 %/hour | TNF-α and ROS generation ([11]; (TauCl)=250 μM): not inhibited | production of IL-10, IL-12, PGE2 and nitric oxide ([11]; (TauCl)=250 μM): inhibits | release of ROS, nitric oxide, PGE2, TNF-α, IL-6, IL-10 and IL-12 ([11]; (TauCl)=500 μM, two hours pre-incubated): almost completely inhibits | release of IL-2 and IL-6 [12]: inhibits | concentration that does not alter viability or induce cytotoxicity or cell apoptose [13]: ≤ 100 µM | TauCl concentration at which cell viability (mitochondrial activity) is not altered [14]: 30 to 300 µM | TauCl concentration that is cytotoxic [14]: 300 µM | pIC50 [15]: ~3.65 | Vmax of take-up ([1]; LPS-stimulated macrophages): 82.6 pmol/min/10^6 cells | Km ([1]; LPS-stimulated macrophages): 45.9 µM | Vmax of take-up ([1]; relaxed rat RAW264.7 cells): 51.3 pmol/min/10^6 cells | Km ([1]; relaxed rat RAW264.7 cells): 23.3 µM | bactericidal activity [16]: very low bactericidal activity | viability preserved [17]: ≥ 95% | effect on hydrogen peroxide production [18]: no effect | pIC50 [19]: ~3.35 | inhibition of nitric oxide generation ([2]; 100 µM): 8-22% | inhibition of nitric oxide generation ([2]; 600 µM): 98% | TauCl concentration above which cell viability decreases significantly [20]: > 0.5 mM | effect on IL-1α production [21]: no effect | AP-1 DNA-bonding ([22]; (TauCl)=250 μM): without altering | DNA-bonding activity of AP-1 ([22]; TauCl 500 μM): decreases

Compound: O=C(O)[C@H](CO)NCl [SerCl, Serine N-chloramine]
inhibition of nitric oxide generation ([2]; (SerCl)=300 μM, after 24 hours): 22% | inhibition of nitric oxide generation ([2]; (SerCl)=300 μM, immediately after its preparation): 85%

pIC50 [9]: 4.00 | HOCl concentration with cell contractions, rounding and loss of adherence ([23]; rounded within 10 minutes, majority lost adherence after three hours): 50 µM | HOCl molecules taken up within the first 10 minutes [24]: ~80% | HOCl molecules taken up within 15 minutes [25]: 100% | HOCl molecules taken up within ½ minute [25]: 50%
Compound: OCl [HOCl, hypochlorous acid]
HOCl concentration above which cell toxicity increases progressively ([23]; exposition time-dependent): > 25 µM | HOCl concentration that is not toxic ([23]; human endothelial cells in vitro): ≤ 25 µM | concentration that does not alter viability or induce cytotoxicity or cell apoptose [13]: < 50 µM | HOCl concentration above which cell death increases significantly [26]: > 0.125 mM | effect on hydrogen peroxide production [18]: inhibits | effect on cell growth [27]: temporary stop of cell growth
